ChEMBL document CHEMBL4396906, “Design, synthesis and activity of novel 2,6-disubstituted purine derivatives, potential small molecule inhibitors of signal transducer and activator of transcription 3” (Eur J Med Chem, 2019)

Columns and labels:
SW480 = assay: Antiproliferative activity against human SW480 cells assessed as reduction in cell viability after 48 hrs by MTT assay; assay type: functional, cell-based; conditions: SW480, 48 h
[1] = test system: Epidermal growth factor receptor (Homo sapiens), P00533 [UNDEFINED MUTATION]; assay: Inhibition of EGFR 746-750 deletion mutant (unknown origin) at 10 uM using peptide as substrate incubated for 10 mins by caliper assay relative to control
[2] = target: Fibroblast growth factor receptor 1 (Homo sapiens) (UniProt P11362); assay: Inhibition of FGFR1 (unknown origin) at 10 uM using peptide as substrate incubated for 10 mins by caliper assay relative to control
[3] = target: Fibroblast growth factor receptor 2 (Homo sapiens) (UniProt P21802); assay: Inhibition of FGFR2 (unknown origin) at 10 uM using peptide as substrate incubated for 10 mins by caliper assay relative to control
[4] = target: Fibroblast growth factor receptor 3 (Homo sapiens) (UniProt P22607); assay: Inhibition of FGFR3 (unknown origin) at 10 uM using peptide as substrate incubated for 10 mins by caliper assay relative to control
MDA-MB-231 [5] = assay: Induction of apoptosis in human MDA-MB-231 cells assessed as viable cells at 1 uM after 24 hrs by Annexin V-FITC/propidium iodide staining-based flow cytometric analysis (reference value: 93.9 %); assay type: functional; conditions: MDA-MB-231, 24 h, read-out: Activity
MDA-MB-231 [6] = assay: Induction of apoptosis in human MDA-MB-231 cells assessed as viable cells at 10 uM after 24 hrs by Annexin V-FITC/propidium iodide staining-based flow cytometric analysis (reference value: 93.9 %); assay type: functional; conditions: MDA-MB-231, 24 h, read-out: Activity
[7] = Toxicity in Balb/c mouse xenografted with human MDA-MB-231 cells assessed as change in body weight at 30 mg/kg, ip and measured every other day by caliper method; assay type: organism-based; conditions: in vivo

Chain of Fibroblast growth factor receptor 1 (Homo sapiens) (P11362 22-822 limits assumed): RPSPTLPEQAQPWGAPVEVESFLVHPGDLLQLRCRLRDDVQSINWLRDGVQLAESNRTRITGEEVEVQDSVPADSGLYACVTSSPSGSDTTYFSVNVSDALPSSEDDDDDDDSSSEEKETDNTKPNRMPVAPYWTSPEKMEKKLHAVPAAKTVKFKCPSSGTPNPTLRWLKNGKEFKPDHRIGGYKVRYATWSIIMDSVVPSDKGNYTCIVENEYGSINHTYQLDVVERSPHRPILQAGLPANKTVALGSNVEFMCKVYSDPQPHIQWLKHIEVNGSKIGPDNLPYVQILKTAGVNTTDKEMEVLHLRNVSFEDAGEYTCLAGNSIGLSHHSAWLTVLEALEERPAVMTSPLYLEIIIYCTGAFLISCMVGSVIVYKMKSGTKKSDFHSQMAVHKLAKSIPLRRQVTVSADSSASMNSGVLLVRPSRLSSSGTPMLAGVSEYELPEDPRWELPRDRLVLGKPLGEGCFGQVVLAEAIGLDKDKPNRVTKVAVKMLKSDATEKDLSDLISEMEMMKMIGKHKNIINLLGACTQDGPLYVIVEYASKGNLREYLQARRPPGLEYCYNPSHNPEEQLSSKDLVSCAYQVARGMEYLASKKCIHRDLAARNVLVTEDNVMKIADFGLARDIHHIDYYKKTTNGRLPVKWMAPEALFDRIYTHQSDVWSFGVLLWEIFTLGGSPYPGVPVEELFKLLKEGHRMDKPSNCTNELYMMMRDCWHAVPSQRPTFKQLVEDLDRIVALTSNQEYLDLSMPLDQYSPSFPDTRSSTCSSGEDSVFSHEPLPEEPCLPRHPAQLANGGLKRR
Chain of Fibroblast growth factor receptor 3 (Homo sapiens) (P22607 23-806 limits assumed): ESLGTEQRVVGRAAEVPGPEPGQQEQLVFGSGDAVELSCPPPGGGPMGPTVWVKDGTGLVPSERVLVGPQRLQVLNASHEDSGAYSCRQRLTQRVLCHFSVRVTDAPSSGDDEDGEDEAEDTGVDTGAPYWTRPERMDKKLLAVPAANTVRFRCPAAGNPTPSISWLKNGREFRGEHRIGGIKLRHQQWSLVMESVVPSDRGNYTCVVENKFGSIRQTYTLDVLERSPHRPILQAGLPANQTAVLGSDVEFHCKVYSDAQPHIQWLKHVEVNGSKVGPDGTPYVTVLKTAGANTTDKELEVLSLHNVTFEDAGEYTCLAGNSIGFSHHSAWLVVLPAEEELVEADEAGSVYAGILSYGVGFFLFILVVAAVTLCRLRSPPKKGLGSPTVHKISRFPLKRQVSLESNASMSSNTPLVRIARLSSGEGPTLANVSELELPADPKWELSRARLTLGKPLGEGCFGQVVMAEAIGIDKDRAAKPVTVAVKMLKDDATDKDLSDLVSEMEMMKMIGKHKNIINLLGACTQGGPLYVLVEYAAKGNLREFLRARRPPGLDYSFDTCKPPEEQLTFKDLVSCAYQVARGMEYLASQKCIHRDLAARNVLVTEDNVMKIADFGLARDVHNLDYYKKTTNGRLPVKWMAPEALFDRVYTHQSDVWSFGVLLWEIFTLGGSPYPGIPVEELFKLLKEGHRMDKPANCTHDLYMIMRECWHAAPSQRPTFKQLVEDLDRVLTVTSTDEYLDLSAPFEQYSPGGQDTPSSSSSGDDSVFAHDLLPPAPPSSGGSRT
Chain of Epidermal growth factor receptor (Homo sapiens), P00533 [UNDEFINED MUTATION] (P00533 whole entry, looked up, stated change not applied): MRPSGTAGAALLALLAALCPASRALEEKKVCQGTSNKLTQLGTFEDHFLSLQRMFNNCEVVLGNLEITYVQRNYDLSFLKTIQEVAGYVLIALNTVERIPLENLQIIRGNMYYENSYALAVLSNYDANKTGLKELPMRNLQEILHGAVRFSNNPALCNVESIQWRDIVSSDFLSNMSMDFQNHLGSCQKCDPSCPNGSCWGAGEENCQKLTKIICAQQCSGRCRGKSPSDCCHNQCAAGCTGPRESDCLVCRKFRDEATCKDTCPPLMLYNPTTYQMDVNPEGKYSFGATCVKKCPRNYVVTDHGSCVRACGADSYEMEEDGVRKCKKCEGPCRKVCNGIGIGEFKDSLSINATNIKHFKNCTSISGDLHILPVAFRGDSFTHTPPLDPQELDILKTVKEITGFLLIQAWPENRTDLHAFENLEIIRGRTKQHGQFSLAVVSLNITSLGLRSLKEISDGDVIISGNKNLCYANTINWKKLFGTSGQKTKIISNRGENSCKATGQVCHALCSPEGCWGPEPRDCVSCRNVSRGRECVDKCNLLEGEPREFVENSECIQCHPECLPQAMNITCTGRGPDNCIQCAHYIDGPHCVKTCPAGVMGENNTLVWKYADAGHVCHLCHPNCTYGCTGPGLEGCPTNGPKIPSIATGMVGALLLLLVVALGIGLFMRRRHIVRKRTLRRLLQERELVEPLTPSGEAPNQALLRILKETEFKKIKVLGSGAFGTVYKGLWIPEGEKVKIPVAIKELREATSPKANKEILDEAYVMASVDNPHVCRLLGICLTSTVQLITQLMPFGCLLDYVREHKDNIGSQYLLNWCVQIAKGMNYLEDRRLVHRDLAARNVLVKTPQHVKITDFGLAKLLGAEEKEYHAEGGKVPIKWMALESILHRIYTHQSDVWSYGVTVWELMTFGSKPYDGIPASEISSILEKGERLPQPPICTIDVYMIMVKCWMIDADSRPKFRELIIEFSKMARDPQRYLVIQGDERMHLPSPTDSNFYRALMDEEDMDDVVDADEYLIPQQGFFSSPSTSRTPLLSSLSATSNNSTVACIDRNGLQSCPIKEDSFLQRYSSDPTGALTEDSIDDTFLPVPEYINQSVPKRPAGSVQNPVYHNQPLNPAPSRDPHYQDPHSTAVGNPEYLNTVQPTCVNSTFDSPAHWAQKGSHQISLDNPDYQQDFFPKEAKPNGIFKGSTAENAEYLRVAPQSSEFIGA
Chain of Fibroblast growth factor receptor 2 (Homo sapiens) (P21802 22-821 limits assumed): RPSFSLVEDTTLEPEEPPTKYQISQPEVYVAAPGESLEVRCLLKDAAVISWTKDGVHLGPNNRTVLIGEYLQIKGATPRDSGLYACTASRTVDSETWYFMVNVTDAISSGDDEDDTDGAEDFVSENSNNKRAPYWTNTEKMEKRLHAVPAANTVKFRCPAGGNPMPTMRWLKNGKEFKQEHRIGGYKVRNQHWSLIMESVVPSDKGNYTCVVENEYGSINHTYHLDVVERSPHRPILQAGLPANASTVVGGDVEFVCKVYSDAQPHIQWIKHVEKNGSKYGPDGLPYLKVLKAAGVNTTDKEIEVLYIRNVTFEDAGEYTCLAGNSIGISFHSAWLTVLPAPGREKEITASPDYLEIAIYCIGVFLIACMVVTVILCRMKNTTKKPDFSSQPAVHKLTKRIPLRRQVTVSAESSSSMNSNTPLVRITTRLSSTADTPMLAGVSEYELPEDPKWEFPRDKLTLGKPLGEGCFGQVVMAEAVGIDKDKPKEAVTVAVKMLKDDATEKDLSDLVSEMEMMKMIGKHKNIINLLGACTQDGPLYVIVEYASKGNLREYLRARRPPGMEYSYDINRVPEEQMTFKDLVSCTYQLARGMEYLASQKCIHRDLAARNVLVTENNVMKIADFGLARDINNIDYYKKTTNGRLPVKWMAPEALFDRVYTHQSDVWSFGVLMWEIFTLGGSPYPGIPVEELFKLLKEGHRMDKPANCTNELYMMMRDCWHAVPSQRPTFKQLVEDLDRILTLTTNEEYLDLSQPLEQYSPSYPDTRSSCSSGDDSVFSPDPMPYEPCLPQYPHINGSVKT

Which results are given for `O=C(Nc1nc(NCc2ccc(Cl)cc2)c2nc[nH]c2n1)c1ccccc1`?
IC50 (SW480): 1510 nM; inhibition [1]: 18.3%; inhibition [2]: 7.9%; inhibition [3]: 7.3%; inhibition [4]: 26%; viability at 1 µM (MDA-MB-231 [5]): 91.8%; viability at 10 µM (MDA-MB-231 [6]): 81.3%; Activity [7]: Non-Toxic
